Legend:
Assay in all cases: fluorescent HDAC activity assay (BIOMOL kit) with purified HDAC
Type in all cases: biochemical
HDAC2 = HDAC2 (Homo sapiens, UniProt Q92769)
HDAC6 = target: T1, HDAC6 (Homo sapiens, UniProt Q9UBN7)
T1 sequence (Q9UBN7 1-1215): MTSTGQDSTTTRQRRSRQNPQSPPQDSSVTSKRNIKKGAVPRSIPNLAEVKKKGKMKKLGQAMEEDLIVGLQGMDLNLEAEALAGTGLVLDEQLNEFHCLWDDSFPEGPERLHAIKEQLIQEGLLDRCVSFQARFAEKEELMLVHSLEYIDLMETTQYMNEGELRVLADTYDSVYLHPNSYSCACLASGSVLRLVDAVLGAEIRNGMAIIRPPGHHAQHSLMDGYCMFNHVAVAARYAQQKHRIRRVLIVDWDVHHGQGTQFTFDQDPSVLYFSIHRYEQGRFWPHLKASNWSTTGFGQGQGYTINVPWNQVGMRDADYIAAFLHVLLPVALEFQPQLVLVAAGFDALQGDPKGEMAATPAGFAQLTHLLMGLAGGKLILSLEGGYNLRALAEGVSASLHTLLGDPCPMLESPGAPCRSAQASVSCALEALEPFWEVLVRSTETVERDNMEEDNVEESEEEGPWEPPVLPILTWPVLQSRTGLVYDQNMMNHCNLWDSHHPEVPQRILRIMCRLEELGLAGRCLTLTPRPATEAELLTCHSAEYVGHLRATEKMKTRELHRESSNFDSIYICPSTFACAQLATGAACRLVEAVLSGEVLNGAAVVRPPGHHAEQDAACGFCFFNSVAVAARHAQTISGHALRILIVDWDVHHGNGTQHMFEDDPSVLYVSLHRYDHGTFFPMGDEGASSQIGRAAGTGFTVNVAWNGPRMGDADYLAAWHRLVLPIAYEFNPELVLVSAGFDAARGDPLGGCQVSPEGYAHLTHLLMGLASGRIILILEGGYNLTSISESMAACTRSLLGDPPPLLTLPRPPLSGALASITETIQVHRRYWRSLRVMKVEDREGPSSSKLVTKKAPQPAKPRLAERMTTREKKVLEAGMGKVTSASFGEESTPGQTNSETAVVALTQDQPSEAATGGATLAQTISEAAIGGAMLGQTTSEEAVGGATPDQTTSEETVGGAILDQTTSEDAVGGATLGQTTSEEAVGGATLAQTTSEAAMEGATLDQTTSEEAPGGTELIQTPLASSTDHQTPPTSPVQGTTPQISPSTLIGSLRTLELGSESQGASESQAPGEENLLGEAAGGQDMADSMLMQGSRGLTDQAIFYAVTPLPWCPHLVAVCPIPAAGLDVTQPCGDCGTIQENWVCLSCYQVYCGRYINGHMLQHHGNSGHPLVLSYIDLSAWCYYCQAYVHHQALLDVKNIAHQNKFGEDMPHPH

HDAC1 = HDAC1 (Homo sapiens, UniProt Q13547)
HDAC1, sequence (Q13547 whole entry): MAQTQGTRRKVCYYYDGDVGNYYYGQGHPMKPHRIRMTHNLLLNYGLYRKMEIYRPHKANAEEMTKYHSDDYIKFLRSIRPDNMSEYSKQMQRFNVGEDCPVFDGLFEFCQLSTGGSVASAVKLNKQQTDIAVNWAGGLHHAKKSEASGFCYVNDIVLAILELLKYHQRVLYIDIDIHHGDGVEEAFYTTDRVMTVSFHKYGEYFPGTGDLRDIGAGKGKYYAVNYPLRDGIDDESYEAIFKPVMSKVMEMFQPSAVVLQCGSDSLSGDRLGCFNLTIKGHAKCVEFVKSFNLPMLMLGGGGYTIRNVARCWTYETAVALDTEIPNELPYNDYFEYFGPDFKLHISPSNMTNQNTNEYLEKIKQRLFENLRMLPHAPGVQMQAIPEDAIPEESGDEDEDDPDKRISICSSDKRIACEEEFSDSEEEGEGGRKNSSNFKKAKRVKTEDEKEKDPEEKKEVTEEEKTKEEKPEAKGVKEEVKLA

HDAC 3 = target: T2, HDAC 3 (Homo sapiens, UniProt O15379)
T2 construct: gene HDAC3
T2 sequence (O15379 whole entry): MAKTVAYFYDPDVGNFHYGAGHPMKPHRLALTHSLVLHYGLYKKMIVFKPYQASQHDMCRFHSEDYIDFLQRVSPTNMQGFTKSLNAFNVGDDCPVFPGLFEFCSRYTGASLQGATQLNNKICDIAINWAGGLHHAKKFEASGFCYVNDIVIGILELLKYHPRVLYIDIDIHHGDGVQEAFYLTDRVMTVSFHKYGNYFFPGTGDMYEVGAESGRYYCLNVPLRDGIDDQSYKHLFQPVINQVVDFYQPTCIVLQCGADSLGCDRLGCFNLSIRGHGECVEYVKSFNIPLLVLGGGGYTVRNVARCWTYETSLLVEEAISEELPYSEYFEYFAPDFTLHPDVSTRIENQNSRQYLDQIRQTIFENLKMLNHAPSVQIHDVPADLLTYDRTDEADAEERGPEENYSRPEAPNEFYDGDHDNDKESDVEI

HDAC4 = HDAC4 (Homo sapiens, UniProt P56524)
HDAC4, sequence (P56524 whole entry): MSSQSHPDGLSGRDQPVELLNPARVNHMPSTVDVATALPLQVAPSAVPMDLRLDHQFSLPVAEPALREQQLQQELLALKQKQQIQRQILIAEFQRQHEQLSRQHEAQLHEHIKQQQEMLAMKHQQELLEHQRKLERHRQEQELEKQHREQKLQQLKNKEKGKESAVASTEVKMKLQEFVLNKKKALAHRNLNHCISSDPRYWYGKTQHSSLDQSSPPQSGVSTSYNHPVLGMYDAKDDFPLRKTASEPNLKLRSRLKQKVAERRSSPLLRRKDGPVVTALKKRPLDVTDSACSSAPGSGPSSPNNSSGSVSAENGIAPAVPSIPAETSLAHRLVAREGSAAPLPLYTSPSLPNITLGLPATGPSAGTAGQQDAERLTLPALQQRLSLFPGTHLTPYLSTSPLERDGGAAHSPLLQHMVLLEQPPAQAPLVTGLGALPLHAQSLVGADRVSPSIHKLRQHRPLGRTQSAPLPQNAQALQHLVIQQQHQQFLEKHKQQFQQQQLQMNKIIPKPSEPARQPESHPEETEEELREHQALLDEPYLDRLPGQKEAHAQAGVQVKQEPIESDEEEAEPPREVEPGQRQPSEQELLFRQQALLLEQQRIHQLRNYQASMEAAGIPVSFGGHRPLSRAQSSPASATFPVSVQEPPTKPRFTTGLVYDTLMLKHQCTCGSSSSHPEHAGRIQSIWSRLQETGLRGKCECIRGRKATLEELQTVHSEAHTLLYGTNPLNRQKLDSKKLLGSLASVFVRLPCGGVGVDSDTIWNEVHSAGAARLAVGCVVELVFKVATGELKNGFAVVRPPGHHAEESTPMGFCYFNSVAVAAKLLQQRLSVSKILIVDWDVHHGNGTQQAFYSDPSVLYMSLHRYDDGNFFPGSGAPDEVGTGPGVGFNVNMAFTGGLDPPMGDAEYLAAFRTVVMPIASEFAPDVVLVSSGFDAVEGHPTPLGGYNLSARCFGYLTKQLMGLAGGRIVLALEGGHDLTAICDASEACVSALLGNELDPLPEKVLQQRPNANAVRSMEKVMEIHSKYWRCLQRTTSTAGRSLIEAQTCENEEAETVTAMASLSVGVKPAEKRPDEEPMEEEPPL

HDAC5 = HDAC5 (Homo sapiens, UniProt Q9UQL6)
HDAC5, sequence (Q9UQL6 whole entry): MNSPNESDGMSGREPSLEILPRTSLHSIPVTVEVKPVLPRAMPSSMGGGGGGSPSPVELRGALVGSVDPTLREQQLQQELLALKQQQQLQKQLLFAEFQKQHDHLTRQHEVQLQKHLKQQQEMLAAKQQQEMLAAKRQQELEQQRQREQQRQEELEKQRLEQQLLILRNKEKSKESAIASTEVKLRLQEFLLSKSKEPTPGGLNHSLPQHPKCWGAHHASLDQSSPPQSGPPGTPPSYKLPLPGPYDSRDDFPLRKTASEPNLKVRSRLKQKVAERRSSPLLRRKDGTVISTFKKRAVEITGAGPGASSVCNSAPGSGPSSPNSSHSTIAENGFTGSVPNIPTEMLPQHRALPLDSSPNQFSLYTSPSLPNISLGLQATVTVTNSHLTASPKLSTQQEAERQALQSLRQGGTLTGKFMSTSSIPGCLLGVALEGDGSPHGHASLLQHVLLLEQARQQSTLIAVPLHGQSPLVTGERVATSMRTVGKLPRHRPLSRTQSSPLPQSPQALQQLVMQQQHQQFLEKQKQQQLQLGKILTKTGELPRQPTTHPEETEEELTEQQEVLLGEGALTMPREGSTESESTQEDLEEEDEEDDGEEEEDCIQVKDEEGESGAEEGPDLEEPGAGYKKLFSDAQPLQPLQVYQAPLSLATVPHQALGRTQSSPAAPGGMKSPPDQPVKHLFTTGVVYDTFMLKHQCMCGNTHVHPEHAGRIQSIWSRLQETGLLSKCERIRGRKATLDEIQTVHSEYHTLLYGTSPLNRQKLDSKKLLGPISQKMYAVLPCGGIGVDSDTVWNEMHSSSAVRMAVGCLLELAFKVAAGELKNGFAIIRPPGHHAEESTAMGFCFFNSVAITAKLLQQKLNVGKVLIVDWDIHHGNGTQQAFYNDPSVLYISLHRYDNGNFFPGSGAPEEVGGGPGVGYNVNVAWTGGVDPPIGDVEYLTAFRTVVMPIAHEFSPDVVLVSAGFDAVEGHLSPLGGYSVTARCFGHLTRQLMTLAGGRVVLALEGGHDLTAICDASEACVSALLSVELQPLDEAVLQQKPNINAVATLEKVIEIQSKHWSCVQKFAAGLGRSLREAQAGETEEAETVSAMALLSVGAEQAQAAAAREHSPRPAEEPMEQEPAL

Measured: IC50

HDAC2, sequence (Q92769 whole entry): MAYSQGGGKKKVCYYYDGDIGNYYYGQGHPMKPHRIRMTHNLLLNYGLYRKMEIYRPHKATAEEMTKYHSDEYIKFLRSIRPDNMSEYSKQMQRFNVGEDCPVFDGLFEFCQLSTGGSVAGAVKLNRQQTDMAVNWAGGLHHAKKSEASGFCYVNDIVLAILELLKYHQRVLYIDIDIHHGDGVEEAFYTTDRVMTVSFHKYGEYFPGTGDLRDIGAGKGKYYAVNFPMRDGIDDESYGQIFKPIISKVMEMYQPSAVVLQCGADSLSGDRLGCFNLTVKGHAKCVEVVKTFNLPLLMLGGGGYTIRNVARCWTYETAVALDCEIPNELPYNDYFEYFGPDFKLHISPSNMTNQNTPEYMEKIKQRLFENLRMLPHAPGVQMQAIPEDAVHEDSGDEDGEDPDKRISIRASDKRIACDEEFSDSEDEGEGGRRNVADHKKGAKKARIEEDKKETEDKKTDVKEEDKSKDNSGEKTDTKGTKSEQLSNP

PAC-320
450 to 1390 nM: all assays above

From paper PMC5787485, “HDAC inhibitor PAC-320 induces G2/M cell cycle arrest and apoptosis in human prostate cancer” (Oncotarget, 2017)
